According to the Deep4Chem optical property database:
One block for each molecule: values may come before it.

Experiment: photoluminescence quantum yield (fraction); solvent given as SMILES
[1] = in c1cc(-c2cccc(-n3c4ccccc4c4ccccc43)c2)cc(-n2c3ccccc3c3ccccc32)c1

photoluminescence quantum yield [1]: 0.96
Structure (SMILES): c1ccc(-c2nc(-c3ccccc3)nc(-c3ccc(-c4ccc5c(c4)[Si](c4ccccc4)(c4ccccc4)c4cc(-c6ccc(-c7nc(-c8ccccc8)nc(-c8ccccc8)n7)cc6)ccc4N5c4ccccc4)cc3)n2)cc1

Structure (SMILES): Cc1cc(C)n2c1C=C1c3ccccc3C(c3c[nH]c4ccccc34)=[N+]1[B-]2(F)F
photoluminescence quantum yield (in C1CCOC1): 0.97
photoluminescence quantum yield (in CC#N): 0.96
photoluminescence quantum yield (in CCCCCC): 0.99
photoluminescence quantum yield (in CO): 0.96
photoluminescence quantum yield (in Cc1ccccc1): 0.96
photoluminescence quantum yield (in ClCCl): 0.98

photoluminescence quantum yield (in ClCCl): 0.3
Structure (SMILES): Cc1ccc(C2=Nc3cccc4[n+]3[B-](F)(O2)OC(c2ccc(C)cc2)=N4)cc1

photoluminescence quantum yield (in c1ccccc1): 0.57
Structure (SMILES): COc1ccc(-c2nc3c(ccc4ccccc43)oc2=O)cc1

photoluminescence quantum yield (in CCO): 0.54
Structure (SMILES): O=C(O)CCNc1cccc2ccccc12

Structure (SMILES): CCN(CC)c1ccc2cc(/C=C(\C#N)c3nc4ccccc4o3)c(=O)oc2c1
photoluminescence quantum yield (in C1COCCO1): 0.0097
photoluminescence quantum yield (in CC#N): 0.0071
photoluminescence quantum yield (in CCO): 0.0158
photoluminescence quantum yield (in CCOC(C)=O): 0.0068
photoluminescence quantum yield (in CN(C)C=O): 0.0307
photoluminescence quantum yield (in CO): 0.0157
photoluminescence quantum yield (in CS(C)=O): 0.0263
photoluminescence quantum yield (in Cc1ccccc1): 0.0061
photoluminescence quantum yield (in ClCCl): 0.0066

Structure (SMILES): CC(C)[Si](C#Cc1c2ccc(C(C)(C)C)cc2c(C#Cc2c3ccc(C(C)(C)C)cc3c(C#Cc3c4ccc(C(C)(C)C)cc4c(C#C[Si](C(C)C)(C(C)C)C(C)C)c4ccc(C(C)(C)C)cc34)c3ccc(C(C)(C)C)cc23)c2ccc(C(C)(C)C)cc12)(C(C)C)C(C)C
photoluminescence quantum yield (in Cc1ccccc1): 0.022

Structure (SMILES): CC(C)[Si]1(C(C)C)c2cc(C#N)ccc2-c2ccc(N(c3ccccc3)c3ccccc3)cc21
photoluminescence quantum yield (in C1CCCCC1): 0.64
photoluminescence quantum yield (in CC#N): 0.67
photoluminescence quantum yield (in CCO): 0.72
photoluminescence quantum yield (in CCOCC): 0.74
photoluminescence quantum yield (in CS(C)=O): 0.81
photoluminescence quantum yield (in ClCCl): 0.8
photoluminescence quantum yield (in c1ccccc1): 0.75

photoluminescence quantum yield (in CC#N): 0.08
photoluminescence quantum yield (in CCCCCC): 0.2
Structure (SMILES): Cc1cccc(C)c1Nc1ccc(/C=C/c2ccc3ccccc3c2)cc1

photoluminescence quantum yield (in CS(C)=O): 0.002
photoluminescence quantum yield (in ClCCl): 0.67
Structure (SMILES): CCN(CC)c1ccc2c(c1)oc(=O)c1c(=O)oc3c(C)c4oc(=O)c5c(=O)oc6cc(N(CC)CC)ccc6c5c4cc3c12

photoluminescence quantum yield (in CC#N): 0.017
Structure (SMILES): Cc1cccc2nc3[nH]c(=O)[nH]c(=O)c3nc12

photoluminescence quantum yield (in C1CCCCC1): 0.421
photoluminescence quantum yield (in CC#N): 0.277
photoluminescence quantum yield (in CC(C)O): 0.398
photoluminescence quantum yield (in CCCCCC): 0.42
photoluminescence quantum yield (in CCCCCCCCCCCCCCCC): 0.429
photoluminescence quantum yield (in CCCCCCCCCCCCCCCCCl): 0.441
photoluminescence quantum yield (in CO): 0.305
Structure (SMILES): COC(=O)c1ccc(C#Cc2ccccc2)cc1

Structure (SMILES): COC(=O)c1cc(=O)n(C)c2cc(-c3ccc(OC)cc3)sc12
photoluminescence quantum yield (in C1CCOC1): 0.99
photoluminescence quantum yield (in CC#N): 0.77
photoluminescence quantum yield (in CCO): 0.99
photoluminescence quantum yield (in CN(C)C=O): 0.99
photoluminescence quantum yield (in CO): 0.99
photoluminescence quantum yield (in CS(C)=O): 0.99
photoluminescence quantum yield (in Cc1ccccc1): 0.98
photoluminescence quantum yield (in ClC(Cl)Cl): 0.95
photoluminescence quantum yield (in ClCCl): 0.9

photoluminescence quantum yield (in CC#N): 0.07
Structure (SMILES): Cc1cccc2nc3c(=O)n(C)c(=O)nc-3n(C)c12

Structure (SMILES): c1ccc2c(c1)Oc1ccccc1N2c1ccc(-c2nnc(-c3ccc(N4c5ccccc5Oc5ccccc54)cc3)o2)cc1
photoluminescence quantum yield (in Cc1ccccc1): 0.431
photoluminescence quantum yield (in O=P(c1ccccc1)(c1ccccc1)c1ccccc1Oc1ccccc1P(=O)(c1ccccc1)c1ccccc1): 0.87

photoluminescence quantum yield (in C1COCCO1): 0.004
Structure (SMILES): COc1ccc(C2=C/C(=C\c3ccccc3)C(=O)O2)cc1OC

photoluminescence quantum yield (in CC#N): 0.018
photoluminescence quantum yield (in ClCCl): 0.538
Structure (SMILES): Cc1cc(O)c(C(=O)/C=C/c2ccc(N(C)C)cc2)c(=O)o1

photoluminescence quantum yield (in ClC(Cl)Cl): 0.09
Structure (SMILES): O=c1c2ccccc2c2c(C#C[Si](c3ccccc3)(c3ccccc3)c3ccccc3)c3c(=O)c4ccccc4c3c(C#C[Si](c3ccccc3)(c3ccccc3)c3ccccc3)c12

photoluminescence quantum yield (in C1CCCCC1): 0.14
photoluminescence quantum yield (in CC#N): 0.18
photoluminescence quantum yield (in CO): 0.37
photoluminescence quantum yield (in O): 0.57
Structure (SMILES): Nc1ccc2[nH]ncc2c1

Structure (SMILES): COc1ccc(-c2nc(-c3ccccc3)c(N(C)C)[se]2)cc1
photoluminescence quantum yield (in ClC(Cl)Cl): 0.039

photoluminescence quantum yield (in ClC(Cl)Cl): 0.14
Structure (SMILES): CC1=CC(C)=[N+]2C1=C(c1ccc(I)cc1)c1c(C)cc(C)n1[B-]21OCCO1

photoluminescence quantum yield (in C1CCCCC1): 0.0005
photoluminescence quantum yield (in C1COCCO1): 0.003
photoluminescence quantum yield (in CC#N): 0.007
photoluminescence quantum yield (in CCO): 0.02
photoluminescence quantum yield (in OCC(F)(F)F): 0.04
Structure (SMILES): Cc1oc2c(Cl)cc3c(C)cc(=O)oc3c2c1C

photoluminescence quantum yield (in CCO): 0.148
Structure (SMILES): CC1(C)C(/C=C/C2=C(Cl)C(=C/C=C3/N(Cc4ccc(F)cc4)c4ccccc4C3(C)C)/CCC2)=[N+](Cc2ccc(F)cc2)c2ccccc21

photoluminescence quantum yield (in CO): 0.07
Structure (SMILES): c1ccc(N(c2ccccc2)c2ccc(-c3ncc(-c4ccncc4)s3)cc2)cc1

photoluminescence quantum yield (in ClC(Cl)Cl): 0.72
Structure (SMILES): Cc1cc(C)c(C2=C3C=CC4=[N+]3[B-]3(Oc5ccccc54)Oc4ccccc4-c4ccc2n43)c(C)c1 (configuration not stated)

photoluminescence quantum yield (in ClCCl): 0.874
Structure (SMILES): CC(C)(C)C1=CC2=C3C(=CC=C4C=CC(c5cc6c7cc(-c8ccc9ccc%10cc(C(C)(C)C)cc%11ccc8c9c%10%11)ccc7c(-c7ccc8ccc9cc(C(C)(C)C)cc%10ccc7c8c9%10)cc6c6cc(-c7ccc8ccc9cc(C(C)(C)C)cc%10ccc7c8c9%10)ccc56)=C(C=C2)C43)C1 (configuration not stated)

photoluminescence quantum yield (in CCO): 0.011
Structure (SMILES): CC(C)=CCN1C(=O)c2cccc3c2c(cc2oc(C)nc23)C1=O

photoluminescence quantum yield (in ClCCl): 0.17
Structure (SMILES): CCCCN(CCCC)c1ccc(C#Cc2cc(C#Cc3c(F)c(F)c(F)c(F)c3F)c(C#Cc3c(F)c(F)c(F)c(F)c3F)cc2C#Cc2ccc(N(CCCC)CCCC)cc2)cc1

photoluminescence quantum yield (in CC1CCCO1): 0.35
Structure (SMILES): COc1c(-c2c(OC)c3cccc4ccc5oc(=O)cc2c5c43)c2cc(=O)oc3ccc4cccc1c4c32

photoluminescence quantum yield (in C1COCCO1): 0.007
Structure (SMILES): COC(=O)c1ccc(/C=C2\C=C(c3ccccc3)OC2=O)cc1

Structure (SMILES): CC(C)(C)c1ccc2c(c1)c1cc(C(C)(C)C)ccc1n2-c1cc(C(=O)c2ccccc2)cc(-n2c3ccc(C(C)(C)C)cc3c3cc(C(C)(C)C)ccc32)c1
photoluminescence quantum yield (in Cc1ccccc1): 0.073
photoluminescence quantum yield [1]: 0.75

Structure (SMILES): CN(C)c1ccc(C#Cc2ccc(C=O)cc2)cc1
photoluminescence quantum yield (in C1CCCCC1): 0.363
photoluminescence quantum yield (in C1CCOC1): 0.131
photoluminescence quantum yield (in C1COCCO1): 0.254
photoluminescence quantum yield (in CC1CCCO1): 0.223
photoluminescence quantum yield (in CC#N): 0.012
photoluminescence quantum yield (in CC(C)=O): 0.047
photoluminescence quantum yield (in CC(C)CC(C)(C)C): 0.044
photoluminescence quantum yield (in CC(C)O): 0.017
photoluminescence quantum yield (in CCCCCCCCCCCCCCCC): 0.056
photoluminescence quantum yield (in CCCCCCCCCCCCCCCCCl): 0.093
photoluminescence quantum yield (in CCOC(C)=O): 0.174
photoluminescence quantum yield (in CCOCC): 0.201
photoluminescence quantum yield (in CN(C)C=O): 0.046
photoluminescence quantum yield (in CO): 0.006
photoluminescence quantum yield (in CS(C)=O): 0.037
photoluminescence quantum yield (in Cc1ccccc1): 0.337

photoluminescence quantum yield (in ClCCl): 0.39
Structure (SMILES): CCCCCCC1(CCCCCC)c2cc(-c3ccc(-c4ccc(-c5ccc(-c6ccc7c(c6)C(CCCCCC)(CCCCCC)c6cc(-n8c9ccccc9c9ccccc98)ccc6-7)s5)c5nsnc45)s3)ccc2-c2ccc(-n3c4ccccc4c4ccccc43)cc21

photoluminescence quantum yield (in CC#N): 0.886
Structure (SMILES): N#Cc1nn(-c2ccccc2)nc1N1CCCC1

Structure (SMILES): F[B-]1(F)n2cccc2C=C2c3ccccc3C(c3ccc[nH]3)=[N+]21
photoluminescence quantum yield (in C1CCOC1): 0.82
photoluminescence quantum yield (in CC#N): 0.8
photoluminescence quantum yield (in CCCCCC): 0.83
photoluminescence quantum yield (in CO): 0.76
photoluminescence quantum yield (in Cc1ccccc1): 0.81
photoluminescence quantum yield (in ClCCl): 0.8

Structure (SMILES): Cc1cc(C(F)(F)F)nc2c1ccc1nc(-c3ccc(F)c(F)c3)cn12
photoluminescence quantum yield (in CC#N): 0.84
photoluminescence quantum yield (in CCCCOC(C)=O): 0.78
photoluminescence quantum yield (in CO): 0.83
photoluminescence quantum yield (in ClC(Cl)Cl): 0.96

Structure (SMILES): C=CC1CN2CCC1CC2[C@@H](OCc1ccccc1)c1ccnc2ccc(O)cc12 (some centres not stated)
photoluminescence quantum yield (in C1CCOC1): 0.12
photoluminescence quantum yield (in CC#N): 0.016
photoluminescence quantum yield (in CCCC#N): 0.021
photoluminescence quantum yield (in Cc1ccccc1): 0.06
photoluminescence quantum yield (in ClCCl): 0.035

photoluminescence quantum yield (in CCOC(C)=O): 0.27
Structure (SMILES): CC(C)(C)OC(=O)n1ccc2c3ccc4cccc5ccc(cc21)c3c54

photoluminescence quantum yield (in C1CCCCC1): 0.16
Structure (SMILES): c1ccc(-c2cc3cccc[n+]3[b-]3ccc(-c4cc[b-]5c(c4)c(-c4ccccc4)cc4cccc[n+]54)cc32)cc1

photoluminescence quantum yield (in ClC(Cl)Cl): 0.78
Structure (SMILES): CCCCCCN1C(=O)c2cccc3c(-c4ccc(C)s4)ccc(c23)C1=O

photoluminescence quantum yield (in C1CCCCC1): 0.61
photoluminescence quantum yield (in C1CCOC1): 0.38
photoluminescence quantum yield (in CC#N): 0.11
Structure (SMILES): Cn1nc(-c2ccccc2)c2nc3cc(F)ccc3nc21

Structure (SMILES): COc1cccc(C2=c3c(c4ccc(C(C)(C)C)cc4c4cc(C(C)(C)C)ccc34)=[N+]3C2=C(c2ccccc2)c2c(-c4cccc(OC)c4)c4c5ccc(C(C)(C)C)cc5c5cc(C(C)(C)C)ccc5c4n2[B-]3(F)F)c1
photoluminescence quantum yield (in C1CCCCC1): 0.62
photoluminescence quantum yield (in C1CCOC1): 0.5
photoluminescence quantum yield (in CC#N): 0.52
photoluminescence quantum yield (in Cc1ccccc1): 0.43
photoluminescence quantum yield (in ClCCl): 0.54

photoluminescence quantum yield (in CC#N): 0.042
Structure (SMILES): Oc1ccc2ccccc2c1/C=N/c1cc2ccccc2cc1/N=C/c1c(O)ccc2ccccc12

Structure (SMILES): O=c1oc2ccccc2cc1-c1nc2ccccc2o1
photoluminescence quantum yield (in C1CCOC1): 0.77
photoluminescence quantum yield (in C1COCCO1): 0.84
photoluminescence quantum yield (in CC1CCCCC1): 0.94
photoluminescence quantum yield (in CC#N): 0.72
photoluminescence quantum yield (in CC(C)=O): 0.76
photoluminescence quantum yield (in CC(C)CO): 0.8
photoluminescence quantum yield (in CC(C)O): 0.76
photoluminescence quantum yield (in CCOC(C)=O): 0.86
photoluminescence quantum yield (in CN(C)C=O): 0.72
photoluminescence quantum yield (in CO): 0.67
photoluminescence quantum yield (in CS(C)=O): 0.77
photoluminescence quantum yield (in Cc1ccccc1): 0.83
photoluminescence quantum yield (in ClC(Cl)(Cl)Cl): 0.92
photoluminescence quantum yield (in ClC(Cl)Cl): 0.87
photoluminescence quantum yield (in OCCO): 0.68

photoluminescence quantum yield (in ClC(Cl)Cl): 0.01
Structure (SMILES): N#Cc1c(C#N)c2cc(Br)ccc2c2ccc(Br)cc12

Structure (SMILES): CN(C)c1ccc(C2=Cc3c4ccccc4cc[n+]3[B-](F)(F)O2)cc1
photoluminescence quantum yield (in C1CCOC1): 0.658
photoluminescence quantum yield (in C1COCCO1): 0.863
photoluminescence quantum yield (in CC1CCCCC1): 0.979
photoluminescence quantum yield (in CC#N): 0.638
photoluminescence quantum yield (in CCOC(C)=O): 0.663
photoluminescence quantum yield (in CCOCC): 0.848
photoluminescence quantum yield (in CN(C)C=O): 0.561
photoluminescence quantum yield (in CO): 0.499
photoluminescence quantum yield (in COC(C)=O): 0.587
photoluminescence quantum yield (in ClC(Cl)Cl): 0.743
